Series [1] is described as follows: Solubility in acetone. The series is classed as physicochemical. Particulars: acetone added until no undissolved dye remained. Here is the method: Solubility of the dyes in acetone was determined by weighing a small amount of dye into a jar and adding small aliquots of acetone until no undissolved dye remained.
A short description of series [2]: Solubility in acrylate monomer (fluorescence measurement). The class given is physicochemical. On the procedure: Solubility of the dyes was determined in various acrylate monomers using standard fluorescence measurement techniques (SPEX Fluorolog-3 Spectrophotometer, SPEX Industries, Edison, N.J.).
Where [3] appears, read: acrylate monomer BMA (butyl methacrylate).
Where [4] appears, read: acrylate monomer LMA (lauryl methacrylate).

For `C=CC(=O)OCCn1c(=O)c2ccc3sc4ccccc4c4ccc(c1=O)c2c34` [AD-1], in series [1], the “Solubility of dye in acetone” value was 0.83 g acetone/mg of dye. In addition, the “Solubility of dyes in acrylate monomers” value in series [2] (setting [3]) is 1217 μg dye/mL of acrylate monomer; in series [2] (setting [4]), 816 μg dye/mL of acrylate monomer.
For `C=CC(=O)OCCOc1cc2c3ccccc3c(=O)c3ccc4c5ccccc5sc1c4c32` [AD-4], the “Solubility of dye in acetone” value in series [1] is 11.0 g acetone/mg of dye.
Still for that read-out and setting: as for `C=CC(=O)OCCOc1cc2c3ccccc3c(=O)c3ccc4c5ccccc5sc1c4c32` [AD-5], the figure is 0.65 g acetone/mg of dye.
In the case of `C=CC(=O)OCCn1c(=O)c2ccc3sc4ccccc4c4ccc(c1=O)c2c34` [AD-6], in series [1], the “Solubility of dye in acetone” value is reported as 11.6 g acetone/mg of dye. Also, the “Solubility of dyes in acrylate monomers” value is recorded as 559 μg dye/mL of acrylate monomer in series [2] (setting [3]) and 227 μg dye/mL of acrylate monomer in series [2] (setting [4]).
The like results for `C=CC(=O)OCCn1c(=O)c2ccc3sc4ccccc4c4ccc(c1=O)c2c34` [AD-7] were, in that order, 0.83 g acetone/mg of dye, 301 μg dye/mL of acrylate monomer and 114 μg dye/mL of acrylate monomer.

These data come from US6930184B2, “Functional fluorescent dyes” (3M Innovative Properties Company, priority 2002, dated 2005).
